From patent US4064235A, “Dopamine derivative compounds, preparation thereof and medicine containing same” (Eisai Co., Ltd., priority 1975, dated 1977)

What was measured:
[1] = system: renal blood flow rate; assay: Measurement of the renal blood flow increasing activity in anesthetized dogs; assay type: in vivo; conditions: for Duration Time of Activity / Renal Blood Flow Rate Increase Ratio (%): 1 mg/Kg/min into the crotch vein continuously over 3 minutes; for Renal Blood Flow Rate Increase Ratio (%): increase at highest flow rate relative to flow rate before administration; for intensity of the activity and activity duration compared with known compound A: dogs, 1 mg/Kg/min for 3 minutes
Description: Measurement of the renal blood flow increasing activity. Compounds Tested:
Crossbred adult dogs (irrespective of the sex) having a body weight of about 15 Kg were used.
The test animal was anesthetized by an intravenous injection of pentobarbital sodium salt (30 mg/Kg) and the abdominal region was fixed. The back region was opened and a probe of a rectangular wave electromagnetic flow meter (Model MF-26 manufactured by Nippon Koden K. K.) was attached to the artery of the left kidney to determine the renal blood flow rate (R. B. F.).
Each test compound was dissolved in distilled water and administered to the test animal from a vinyl resin fine tube inserted and fixed into the crotch vein. The amount administered was 1 mg/Kg/min. and the administration was conducted continuously over a period of 3 minutes.
The degree of increase of the renal blood flow rate by administration of the test compound was expressed in terms of the increase ratio (%), namely the ratio of the increase of the flow rate (when the flow rate was highest) to the flow rate before administration of the test compound. The duration of the activity was simultaneously examined.

[2] = system: renal blood flow; assay: tracing experiment on renal blood flow promoting activity of isoleucyl dopamine; assay type: in vivo
Description: Because of this specific activity, it has been considered to use dopamine for improving renal insufficiency accompanied by hyperpiesia or cardiac insufficiency and other similar diseases. However, since dopamine is promptly converted to norepinephrine or the like by metabolism and the activity is insufficient in duration, it has been difficult to put this compound into practical use.

[3] = system: renal blood flow; conditions: cited from earlier work

Molecule | Duration Time of Activity ([1]; anesthetized dogs) | Renal Blood Flow Rate Increase Ratio (%) ([1]; anesthetized dogs) | intensity of the activity and activity duration compared with known compound A [1] | activity retention time compared with dopamine [2] | renal blood flow promoting activity [2] | durability of renal blood flow increasing activity compared with dopamine ([3]; literature: Am. Chem. So., 165, Meet. MEDI. 11, 1973) | renal blood flow rate change by administration ([1]; anesthetized dogs) | activity of increasing the renal blood flow ([3]; literature: Circulation Research, vol. XVI, 1965)
CC(=O)O.CCC(C)C(N)C(=O)NC(C(=O)NCCc1ccc(O)c(O)c1)C(C)C (stereo not drawn) [Compound A of Present Invention, n-l-isoleucylvalyl dopamine acetate] | 10 min | 33% | excellent over the known compound A |  |  |  |  | 
CC(=O)O.NCC(=O)N1CCC[C@H]1C(=O)NCCc1ccc(O)c(O)c1 [Compound C of Present Invention, N-Glycyl-L-prolyl dopamine acetate] | 60 min | 30% | excellent over the known compound A |  |  |  |  | 
CC(=O)O.CC(C)C[C@H](NC(=O)CNC(=O)CN)C(=O)NCCc1ccc(O)c(O)c1 [Compound D of Present Invention, N-Glycylglycyl-L-leucyl dopamine acetate] | 20 min | 37% | excellent over the known compound A |  |  |  |  | 
CC(=O)O.NCC(=O)NCC(=O)N1CCC[C@H]1C(=O)NCCc1ccc(O)c(O)c1 [Compound E of Present Invention, N-Glycylglycyl-L-prolyl dopamine acetate] | 30 min | 36% | excellent over the known compound A |  |  |  |  | 
CC(=O)O.CC[C@H](C)[C@H](N)C(=O)NCCc1ccc(O)c(O)c1 [Known Compound A, N-L-Isoleucyl dopamine acetate] | 6 min | 10% |  | longer than that of dopamine | low | more durable than that of dopamine |  | 
NCCc1ccc(O)c(O)c1 [dopamine] |  |  |  |  |  |  | increased | specific activity of increasing the renal blood flow
N-Glycyl-L-glutamyl dopamine acetate [Compound B of Present Invention] | 60 min | 33% | excellent over the known compound A |  |  |  |  | 
